In patent US11344510B2, “Arylcyclohexylamine derivatives and their use in the treatment of psychiatric disorders” (Gilgamesh Pharmaceuticals, Inc., priority 2019, dated 2022):
Like-named read-outs stand apart in the source and are kept apart here.

How the values were obtained:
[1] = tested on: monoamine transporters, MATs (SERT, NET, DAT, VMAT2); test: Monoamine uptake inhibition, monoamine transporters collectively; type: cell-based; settings: in words
Experimental: The ability of the compounds of the present invention to inhibit uptake of monoamines by the serotonin transporter (SERT), norepinephrine transporter (NET), dopamine transporter (DAT), and vesicular monoamine transporter 2 (VMAT2) (collectively monoamine transporters, MATs) was measured using fluorescent substrate uptake assays in transfected cells (Table 14). The binding affinities of select compounds were also determined in radioligand displacement assays at SERT, NET, and/or DAT (Table 14).
Uptake Inhibition. The ability of test compounds to block monoamine uptake by SERT, NET, DAT, and VMAT2 was determined using the Neurotransmitter Transporter Uptake Assay Kit manufactured by Molecular Devices (Cat #R8173). Briefly, stably transfected cells expressing the MAT of interest (HEK293 cells for SERT and NET; CHO cells for DAT) were grown and plated into 384-well plates at a concentration of 20,000 cells per well. Plates were then incubated for 16-20 h at 37° C. and 5% CO2. The medium was then aspirated and replaced with 25 μL of assay buffer (20 mM HEPES in HBSS, containing 0.1% BSA) containing the test compounds at the appropriate concentrations. Plates were then centrifuged at 300 rpm for 15 s and then incubated at 37° C. for 30 minutes. At this time, 25 μL of the proprietary fluorescent dye solution was added, the plates were incubated at 37° C. for 60 minutes, and then fluorescence was quantified on a plate reader (excitation wavelength=440 nm, emission wavelength=520 nm). The proprietary dye solution contains a mixture of 1) a fluorescent dye that mimics the endogenous substrates of MATs and is thereby actively transported to the intracellular compartment in the absence of an inhibitor and 2) a masking dye that inhibits the fluorescence of dye 1 in the extracellular compartment. Therefore, the overall fluorescence of the system increases as the fluorescent dye is transported into the cells.

[2] = RLM stability (High Activity); type: in vitro ADME, Sprague Dawley rats; settings: for half-life at 1 μM / microsomal CLint at 1 μM: male, Sprague Dawley, rat, liver microsomes, pH 7.4, Condition 2 (High Activity), 1.0 mg protein/mL
Experimental: RLM Stability (High Activity). Pooled RLM from male Sprague Dawley rats (XenoTech R1000, lot #1910100) were used. Microsomal incubations were carried out in 96-well plates in 5 aliquots of 40 μL each (one for each time point). Liver microsomal incubation medium consisted of PBS (100 mM, pH 7.4), MgCl2 (3.3 mM), NADPH (3 mM), glucose-6-phosphate (5.3 mM), and glucose-6-phosphate dehydrogenase (0.67 units/mL), with 1.0 mg of liver microsomal protein per mL. Control incubations were performed by replacing the NADPH-cofactor system with PBS. Test compounds (1 μM, final solvent concentration 1.6%) were incubated with microsomes at 37° C., shaking at 100 rpm. Incubations were performed in duplicate. Five time points over 60 minutes were analyzed. The reactions were stopped by adding 9 volumes of 90% acetonitrile-water to incubation aliquots, followed by protein sedimentation by centrifugation at 5500 rpm for 3 minutes. Supernatants were analyzed for parent compound remaining using a fit-for-purpose liquid chromatography-tandem mass spectrometry (LC-MS/MS) method, with authentic samples of each analyte used for identity confirmation.
Data Analysis. The elimination constant (kel), half-life (t1/2) and intrinsic clearance (Clint) were determined in a plot of […] versus time, using linear regression analysis.

[3] = Oral bioavailability in mice, Method B; type: in vivo; settings: CD-1 mice; for AUC0-inf (iv) / AUC0-last (po) / AUC(0-inf): Method B: values represent AUC0-last (footnote); for F: 10 mg/kg; for half-life / Cmax / AUC(0-inf): male, mouse
Experimental: Animals. Male CD-1 mice were used in these studies Animals were randomly assigned to treatment groups and were fasted for 4 h before oral dosing.
Drugs. Test compounds were dissolved in a vehicle consisting of normal saline (compounds 19S and 88R) or a mixture of 5% v/v N-methyl-2-pyrrolidone, 5% v/v Solutol HS-15, and 90% v/v normal saline (compounds 11S, 11R, 114S, and 114R). They were then administered intravenously (iv) or orally (po) at a dose of 10 mg/kg (calculated based on freebase) and at a volume of 5 mL/kg body weight. Compounds were tested as the racemates (indicated by “rac” nomenclature) or pure enantiomers (indicated by “R” or “S” nomenclature).
Sample Collection and Bioanalysis. Blood samples (approximately 60 μL) were collected under light isoflurane anesthesia (Surgivet®) from the retro orbital plexus at 0.08, 0.25, 0.5, 1, 2, 4, 8, and 24 h (4 animals per time point) Immediately after blood collection, plasma was harvested by centrifugation at 4000 rpm for 10 min at 4° C. and samples were stored at −70±10° C. until bioanalysis. Following blood collection, animals were immediately sacrificed, the abdominal vena-cava was cut open, and the whole body was perfused from the heart using 10 mL of normal saline, and brain samples were collected from all animals After isolation, brain samples were rinsed three times in ice-cold normal saline (for 5-10 seconds/rinse using ˜5-10 mL normal saline in disposable petri dish for each rinse) and dried on blotting paper. Brain samples were homogenized using ice-cold phosphate-buffered saline (pH 7.4). Total homogenate volume was three times the tissue weight. All homogenates were stored at −70±10° C. until bioanalysis. For bioanalysis, 25 μL aliquots of plasma/brain study samples or spiked plasma/brain calibration standards were added to individual pre-labeled micro-centrifuge tubes followed by 100 μL of an internal standard solution (glipizide, 500 ng/mL in acetonitrile) except for blanks, where 100 μL of acetonitrile was added. Samples were vortexed for 5 minutes and then centrifuged for 10 minutes at 4000 rpm at 4° C. Following centrifugation, 100 μL of each clear supernatant was transferred to a 96 well plate and analyzed with a fit-for-purpose LC-MS/MS method, with authentic samples of each analyte used for calibration and identification.
Data Analysis. Pharmacokinetic parameters were estimated using the non-compartmental analysis tool of Phoenix® WinNonlin software (Ver 8.0).

[4] = target: T1, dopamine transporter (DAT) (Homo sapiens, UniProt Q01959); test: Fluorescent substrate uptake inhibition, DAT; type: cell-based; settings: for inhibition at 10 µM: CHO cells expressing DAT
T1 construct: expressed in transfected cells; host or cells: CHO (uptake)

[5] = calculated based on brain exposure (AUC0-last), Method B
[6] = brain, 10 mg/kg iv, Method B, read-out: t1/2 (iv)
[7] = brain, 10 mg/kg po, Method B, read-out: t1/2 (po)
[8] = plasma, 10 mg/kg iv, read-out: AUC0-inf (iv) (converted)
[9] = plasma, 10 mg/kg iv, Method B, read-out: t1/2 (iv)
[10] = plasma, 10 mg/kg po, read-out: AUC0-inf (po) (converted)
[11] = plasma, 10 mg/kg po, Method B, read-out: t1/2 (po)
[12] = plasma, Method B: based on AUC0-last

T1 sequence (Q01959 whole entry, species assumed): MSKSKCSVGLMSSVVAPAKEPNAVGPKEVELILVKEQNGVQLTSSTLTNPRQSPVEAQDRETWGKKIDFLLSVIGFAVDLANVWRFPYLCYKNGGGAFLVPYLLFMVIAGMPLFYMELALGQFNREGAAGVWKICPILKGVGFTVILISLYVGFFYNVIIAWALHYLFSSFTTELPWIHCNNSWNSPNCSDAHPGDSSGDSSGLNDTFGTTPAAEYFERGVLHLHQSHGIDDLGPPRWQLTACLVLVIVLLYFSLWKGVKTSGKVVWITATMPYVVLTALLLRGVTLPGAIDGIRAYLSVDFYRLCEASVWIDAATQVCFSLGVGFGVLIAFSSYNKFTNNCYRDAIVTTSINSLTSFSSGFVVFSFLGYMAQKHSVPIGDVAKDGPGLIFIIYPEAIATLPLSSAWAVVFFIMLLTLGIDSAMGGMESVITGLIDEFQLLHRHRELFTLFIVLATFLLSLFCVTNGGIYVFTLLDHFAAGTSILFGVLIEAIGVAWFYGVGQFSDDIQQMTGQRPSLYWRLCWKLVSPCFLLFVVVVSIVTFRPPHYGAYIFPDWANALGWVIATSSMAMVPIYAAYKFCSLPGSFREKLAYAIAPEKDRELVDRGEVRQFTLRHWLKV

SMILES	selectivity for NMDAR (over MATs) [1]	half-life at 1 μM [2]	microsomal CLint at 1 μM [2]	metabolic stability compared to non-deuterated counterparts 14R and 14S ([2]; High Activity)	AUC0-inf (iv) ([3]; brain, 10 mg/kg iv)	AUC0-last (po) ([3]; brain, 10 mg/kg po)	F [3, 5]	half-life [3, 6]	Cmax ([3]; brain, 10 mg/kg po, Method B)	half-life [3, 7]	AUC(0-inf) [3, 8]	half-life [3, 9]	Cmax ([3]; plasma, 10 mg/kg po, Method B)	AUC(0-inf) [3, 10]	half-life [3, 11]	F [3, 12]	inhibition at 10 µM [4]	IC50 [4]
COCCNC1(c2ccccc2)CCCCC1=O (racemic) [Compound 29rac, 2-((2-methoxyethyl)amino)-2-phenylcyclohexan-1-one]	greater selectivity for NMDAR	0.293 h	39 µL/min/mg	–	–	–	–	–	–	–	–	–	–	–	–	–	–	–
[2H]C([2H])([2H])N[C@@]1(c2ccccc2)CCCCC1=O [Compound 88R, (R)-2-((methyl-d3)amino)-2-phenylcyclohexan-1-one]	greater selectivity for NMDAR	0.66 h	18 µL/min/mg	increased metabolic stability	334,518 ng*min/g	143,445 ng*min/g	43%	0.6 h	3100 ng/g	1.33 h	1530 ng·h/mL	0.57 h	621 ng/mL	718 ng·h/mL	1.38 h	47%	7.9%	–
N[C@@]1(c2ccccc2)CCCCC1=O [Compound 11R, (R)-2-amino-2-phenyl-cyclohexan-1-one]	–	1.72 h	7 µL/min/mg	–	621,341 ng*min/g	220,091 ng*min/g	35%	1.17 h	1470 ng/g	1.9 h	5570 ng·h/mL	1.11 h	1430 ng/mL	4210 ng·h/mL	2.41 h	76%	-11.8%	–
O=C1CCCC[C@]1(c1ccccc1)N1CCC1 [Compound 84R, (R)-2-(azetidin-1-yl)-2-phenyl-cyclohexan-1-one]	–	0.363 h	32 µL/min/mg	–	–	–	–	–	–	–	–	–	–	–	–	–	28.2%	19.4 µM
CN[C@]1(c2cccc(F)c2)CCCCC1=O [Compound 19S, (5)-2-(3-fluorophenyl)-2-(methylamino)cyclohexan-1-one]	greater selectivity for NMDAR	0.313 h	37 µL/min/mg	–	171,028 ng*min/g	23,552 ng*min/g	14%	1.93 h	436 ng/g	2.35 h	1130 ng·h/mL	1.9 h	442 ng/mL	671 ng·h/mL	2.28 h	59%	18.1%	–
CNC1(c2ccccc2Cl)CCCCC1=O (racemic) [rac-ketamine, racemic ketamine, reference compound]	–	0.0767 h	151 µL/min/mg	–	–	–	–	–	–	–	–	–	–	–	–	–	–	–
CN[C@@]1(c2ccccc2)CCCCC1=O [Compound 14R, (R)-2-(methylamino)-2-phenylcyclohexan-1-one]	greater selectivity for NMDAR	0.303 h	38 µL/min/mg	–	–	–	–	–	–	–	–	–	–	–	–	–	-4.5%	–
